Residue numbers refer to the chain shown, from its start.
How the values were obtained:
[1] = target: T1, wild type AR (Homo sapiens, UniProt P10275); experiment: AR Binding Assay (whole cell, MDA-MB-453, competition with [3H]-DHT); conditions: MDA-MB-453 cells, competition with 2 nM [3H]-DHT, Cheng-Prusoff
T1 sequence (P10275 1-920 Q868H): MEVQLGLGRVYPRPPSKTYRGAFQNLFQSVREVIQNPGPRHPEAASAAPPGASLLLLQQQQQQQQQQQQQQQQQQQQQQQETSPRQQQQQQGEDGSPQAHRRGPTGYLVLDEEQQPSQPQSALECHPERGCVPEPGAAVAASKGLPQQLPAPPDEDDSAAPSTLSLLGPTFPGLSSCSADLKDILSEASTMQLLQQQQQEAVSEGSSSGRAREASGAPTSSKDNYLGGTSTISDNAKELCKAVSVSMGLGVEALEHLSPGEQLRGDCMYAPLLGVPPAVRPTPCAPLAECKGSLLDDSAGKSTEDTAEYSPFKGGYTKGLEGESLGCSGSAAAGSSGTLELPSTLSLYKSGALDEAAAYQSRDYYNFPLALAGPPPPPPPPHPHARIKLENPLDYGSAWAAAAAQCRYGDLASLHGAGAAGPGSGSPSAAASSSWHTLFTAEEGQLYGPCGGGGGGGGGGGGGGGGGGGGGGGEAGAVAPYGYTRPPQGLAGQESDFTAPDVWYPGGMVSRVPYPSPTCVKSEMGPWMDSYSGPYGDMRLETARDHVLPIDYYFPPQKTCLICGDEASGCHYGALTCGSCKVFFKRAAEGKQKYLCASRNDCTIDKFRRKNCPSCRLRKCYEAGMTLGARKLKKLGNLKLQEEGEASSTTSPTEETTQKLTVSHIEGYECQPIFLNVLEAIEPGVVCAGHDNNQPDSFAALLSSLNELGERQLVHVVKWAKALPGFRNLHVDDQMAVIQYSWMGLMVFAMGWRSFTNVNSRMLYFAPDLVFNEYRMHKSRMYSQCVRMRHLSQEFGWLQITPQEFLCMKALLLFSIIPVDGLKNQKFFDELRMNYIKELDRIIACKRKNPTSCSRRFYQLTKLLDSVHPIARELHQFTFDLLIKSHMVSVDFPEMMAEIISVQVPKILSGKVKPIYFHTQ
Experimental: For the whole cell binding assay, human breast adenocarcinoma MDA-MB-453 cells (American Type Culture Collection, Rockville, Md., ATCC #: HTB-131), expressing a functional endogenous wild type AR, are grown to near confluency in T-225 tissue culture flasks containing Dulbecco's Modified Eagle Medium (DMEM) (Mediatech CAT #45000-668) supplemented with 10% fetal bovine serum (FBS) (Invitrogen/GIBCO Life Science). In order to remove any endogenous ligand that might be complexed with the receptor in the cells, the tissue culture media is removed and the cells are incubated overnight at 37° C. in serum-free DMEM. The next day, cells are rinsed with magnesium and calcium free Phosphate Buffered Saline (PBS) (Invitrogen/GIBCO Life Science), harvested using Cell Stripper Buffer (Mediatech) and re-suspended in serum-free DMEM to achieve a final assay concentration of 4×10^5 cells/well of a 96-well assay plate. […] After the remaining media is removed, cells are washed three times with PBS and harvested onto UniFilter GF/B plates (PerkinElmer).
Two replicates are used for each sample. After 90 minutes at room temperature, cells are harvested by filtering through a GF/B filter plate (PerkinElmer) followed by washing with ice-cold 1×PBS (without calcium and magnesium) to remove unbound label. […] After correcting for non-specific binding, IC50 values are determined. The IC50 value is defined as the concentration of competing ligand needed to reduce specific binding by 50%. […] The Ki values are determined by application of the Cheng-Prusoff equation to the IC50 values where: […]
See e.g., D. Rodbard, Mathematics and Statistics of Ligand Assays: An Illustrated Guide: In: J. Langon and J. J. Clapp, eds., Ligand Assay, Masson Publishing U.S.A., Inc., New York, pp. 45-99 (1981).

[2] = target: T2, androgen receptor (AR) (Homo sapiens, UniProt P10275); experiment: MDA-MB-453 Androgen Receptor Transactivation Assay; format: cell-based; conditions: MDA-MB-453 cells, PSA-Luc reporter, 3 nM DHT, 48 hour incubation
T2 sequence (P10275 1-920): T1 sequence (P10275 1-920 Q868H) with H868Q
From the text: Compounds can be tested in a cell based transactivation assay used to measure the antagonism of androgen receptor (AR) transcriptional activity. […] The human breast adenocarcinoma MDA-MB-453 cell line (American Type Culture Collection, Rockville, Md., ATCC#: HTB-131), expressing a functional endogenous wild type AR, was transiently transfected with a reporter plasmid and tested for AR dependent transactivation activity in the absence or presence of test compounds. The pGL3 PSA-Luc reporter plasmid is comprised of the cDNA for the firefly luciferase gene and the upstream promoter sequences containing the androgen response elements (AREs) of the prostate specific antigen (PSA). This plasmid functions as a reporter for the transcription-modulating activity of the AR. In order to detect antagonists, the transactivation assay is conducted in the presence of constant concentration of the natural AR hormone (DHT) to induce a defined reporter signal. Addition of increasing concentrations of the suspected antagonist will decrease the reporter signal (luciferase activity).
MDA-MB-453 and 22 RV1 cells were maintained in DMEM (Cellgro, Cat. #10-014-CM) or RPMI 1640 (Gibco Cat. #11875-085) respectively and supplemented with 10% FBS (Invitrogen/GIBCO Life Science). Cells were bulk transfected in flasks with 1.3 ug/ml pGL3 PSA-Luc plasmid by using the Lipofectamine 2000 Reagent (Invitrogen, Cat. #11668-019) and serum-free Opti-MEM I media (Invitrogen, Cat#31985-070) according to the manufacturer's optimized conditions. Transfection was conducted at 37° C. with 5% CO2 for 16-18 hours. Following transfection, cells are washed, treated with trypsin, counted, and seeded in a 96-well plate at 30,000 cells per well in DMEM containing 10% Charcoal/Dextran Treated Fetal Bovine Serum (Gibco Cat. #11054-020) for MDA-MB-453 cells or RPMI 1640 (Gibco Cat. #110835) containing 10% FBS (Invitrogen/GIBCO Life Science) for 22 RV1 cells.
Following transfection, cells were incubated in the absence (blank) or presence (control) of 3 nM DHT (Sigma, Cat. #A-8380) and in the presence or absence of the standard antiandrogen bicalutamide or test compounds ranging in concentrations from 10^−10 to 10^−5M. Duplicates were used for each sample. The compound dilutions were performed by the Tecan Genesis (Tecan, Triangle Park, N.C.). After a 48 hour incubation, luciferase activity was measured using the Steady-Glo Luciferase Assay System (Promega, Cat. #E2550) according to manufacturer's specifications and luminescence was measured on a Packard TopCount (PerkinElmer). For each luciferase sample reading, the percent control (in absence of compounds) was calculated as: % Control=100×[averagesample−averageblank]/[averagecontrol−averageblank] Data was plotted and the IC50 value was defined as the concentration of compound that inhibited 50% of the luciferase activity for the controls.

| Structure (SMILES) | Ki [1] [nM] | IC50 [2] [nM] |
| --- | --- | --- |
| N#Cc1ccc(N2CC3C([C@@H]4CC[C@H]3O4)S2(=O)=O)cc1C(F)(F)F (stereo in doubt) [Example 6, 4-((1S,2R,6R,7R)-3,3-dioxido-10-oxa-3-thia-4-azatricyclo[5.2.1.0^2,6]dec-4-yl)-2-(trifluoromethyl)benzonitrile] | 23 | 198 |
| N#Cc1ccc(N2C[C@H]3[C@H]4O[C@H]([C@@H]5O[C@@H]54)[C@H]3S2(=O)=O)cc1C(F)(F)F [Example 9, 4-((1R,2S,6S,7R,8R,10R)-3,3-dioxido-9,11-dioxa-3-thia-4-azatetracyclo[5.3.1.0^2,6.0^8,10]undec-4-yl)-2-(trifluoromethyl)benzonitrile] | 92 | 2640 |
| N#Cc1ccc(N2C[C@H]3[C@H]([C@H]4O[C@@H]3C[C@H]4F)S2(=O)=O)cc1C(F)(F)F [Example 14, 4-((1S,2R,6R,7R,9R)-9-fluoro-3,3-dioxido-10-oxa-3-thia-4-azatricyclo[5.2.1.0^2,6]dec-4-yl)-2-(trifluoromethyl)benzonitrile] | 11 | 144 |
| C[C@@]12C=C[C@@H](O1)[C@@H]1CN(c3ccc(C#N)c(C(F)(F)F)c3)S(=O)(=O)[C@@H]12 (racemic) [Example 21ii, rac-4-((1R,2R,6R,7S)-1-methyl-3,3-dioxido-10-oxa-3-thia-4-azatricyclo[5.2.1.0^2,6]dec-8-en-4-yl)-2-(trifluoromethyl)benzonitrile] | 145 | 1110 |
| N#Cc1ccc(N2C[C@H]3[C@@H]4O[C@@H](C[C@H]4O)[C@H]3S2(=O)=O)cc1C(F)(F)F (racemic) [Example 10ii, rac-4-((1R,2R,6R,7R,8S)-8-hydroxy-3,3-dioxido-10-oxa-3-thia-4-azatricyclo[5.2.1.0^2,6]dec-4-yl)-2-(trifluoromethyl)benzonitrile] | 745 | 7500 |
| C[C@]12[C@H](CN(c3ccc(C#N)c(C(F)(F)F)c3)S1(=O)=O)[C@@H]1C=C[C@H]2O1 [Example 4, 4-((1R,2R,6R,7S)-2-methyl-3,3-dioxido-10-oxa-3-thia-4-azatricyclo[5.2.1.0^2,6]dec-8-en-4-yl)-2-(trifluoromethyl)benzonitrile] | 221 | 1420 |
| C[C@]12C=C[C@H](O1)[C@@H]1[C@H]2CN(c2ccc(C#N)c(C(F)(F)F)c2)S1(=O)=O (racemic) [Example 21i, rac-4-((1R,2R,6R,7S)-7-methyl-3,3-dioxido-10-oxa-3-thia-4-azatricyclo[5.2.1.0^2,6]dec-8-en-4-yl)-2-(trifluoromethyl)benzonitrile] | 173 | 1160 |
| COC(=O)N[C@H]1C[C@@H]2O[C@H]1[C@H]1CN(c3ccc(C#N)c(C(F)(F)F)c3)S(=O)(=O)[C@H]12 [Example 40i, methyl((1S,2R,6R,7S,8S)-4-(4-cyano-3-(trifluoromethyl)phenyl)-3,3-dioxido-10-oxa-3-thia-4-azatricyclo[5.2.1.0^2,6]dec-8-yl)carbamate] | 46 | 977 |
| C[C@]12CC[C@](C)(O1)[C@@H]1[C@H]2CN(c2ccc(C#N)c(C(F)(F)F)c2)S1(=O)=O (racemic) [Example 18, rac-4-((1R,2R,6R,7S)-1,7-dimethyl-3,3-dioxido-10-oxa-3-thia-4-azatricyclo[5.2.1.0^2,6]dec-4-yl)-2-(trifluoromethyl)benzonitrile] | 222 | 1350 |
| COC(=O)N[C@@H]1C[C@@H]2O[C@H]1[C@@H]1CN(c3ccc(C#N)c(C(F)(F)F)c3)S(=O)(=O)[C@@H]12 (racemic) [Example 26i, methyl rac-((1R,2R,6R,7R,8S)-4-(4-cyano-3-(trifluoromethyl)phenyl)-3,3-dioxido-10-oxa-3-thia-4-azatricyclo[5.2.1.0^2,6]dec-8-yl)carbamate] | 266 | 3130 |
| N#Cc1ccc(N2C[C@@H]3[C@@H]([C@@H]4C=C[C@H]3O4)S2(=O)=O)cc1C(F)(F)F (racemic) [Example 1ii] | 29 | 108 |

Source: US8466171B2, “Fused heterocyclic compounds useful as modulators of nuclear hormone receptor function” (Bristol-Myers Squibb Company, priority 2007, dated 2013)
